Test: Henry solubility constant Hcp at 298.15 K (mol/(m3 Pa))
Details: reference: Buttery et al. (1969)

Structure (SMILES) | Henry solubility constant Hcp
CCCCCCO [1-hexanol] | 0.58
CCCCCCCCO [1-octanol] | 0.4
CCCCCC(C)=O [2-heptanone] | 0.068
CCCCCCCC(C)=O [2-nonanone] | 0.027
CCCCCCC(C)=O [2-octanone] | 0.052
CCCC(C)=O [2-pentanone] | 0.16
CCCCCCCCCC(C)=O [2-undecanone] | 0.016
CCCC=O [butanal] | 0.086
CCCCCCC=O [heptanal] | 0.037
CCCC(=O)OC [methyl butanoate] | 0.048
COC(C)=O [methyl ethanoate] | 0.086
CCCCCC(=O)OC [methyl hexanoate] | 0.027
CCCCCCCC(=O)OC [methyl octanoate] | 0.013
CCCCC(=O)OC [methyl pentanoate] | 0.031
CCC(=O)OC [methyl propanoate] | 0.057
CCCCCCCCC=O [nonanal] | 0.013
CCCCCCCC=O [octanal] | 0.019
CCCCC=O [pentanal] | 0.067
CC(C)=O [propanone] | 0.25

Reference: Sander's compilation of Henry's law constants (doi:10.1021/jf60162a025)
